{"source": "patent US6403116B1", "about": "“Coenzyme Q10 formulation” (Triarco Inductries, Inc., priority 2000, dated 2002)", "key": {"[1]": {"experiment": "Water solubility of coenzyme Q10 alone", "format": "physicochemical"}, "[2]": {"settings": "as disclosed in WO 95/05164; cited from earlier work"}, "[3]": {"experiment": "Coenzyme Q10 added separately to aqueous solutions of the other composition ingredients", "format": "physicochemical", "settings": "5 mg coenzyme Q10 added to 100 mL of 1%, 2.5% and 5% aqueous solutions of all ingredients except coenzyme Q10", "protocol": "To test this theory a 1%, 2.5% and 5% aqueous solutions of the all the composition ingredients except coenzyme Q10 were made in 100 mL volumetric flasks. A 5 mg aliquot of coenzyme Q10 was then separately added to each of the flasks and shaken."}}, "note": "Like-named read-outs stand apart in the source and are kept apart here."}
{"smiles": "COC1=C(OC)C(=O)C(C/C=C(\\C)CC/C=C(\\C)CC/C=C(\\C)CC/C=C(\\C)CC/C=C(\\C)CC/C=C(\\C)CC/C=C(\\C)CC/C=C(\\C)CC/C=C(\\C)CCC=C(C)C)=C(C)C1=O", "note": "[coenzyme Q10, 2,3-dimethoxy-5-methyl-6-decaprenyl-1,4-benzoquinone]", "values": [{"measurement": "water solubility", "setting": "[1]", "result": "not water soluble at any level"}, {"measurement": "water solubility", "setting": "[2]", "result": "practically insoluble in water"}, {"measurement": "behaviour in ultra sound bath", "setting": "[3]", "result": "dispersed then settled to the bottom of the flask"}, {"measurement": "dissolution or dispersion after shaking", "setting": "[3]", "result": "did not go into solution or form a dispersion"}]}
